The text below walks through data of ChEMBL document CHEMBL1122928, “Stereostructure-activity relationship of opioid agonist and antagonist bivalent ligands. Evidence for bridging between vicinal opioid receptors” (J Med Chem, 1985).

Test [1] concerns the target T1, Opioid receptors; mu/kappa/delta (Homo sapiens) (UniProt P41145+P41143+P35372). Put plainly: In vitro agonist activity towards opioid receptor on the electrically stimulated Guinea pig ileal longitudinal muscle (GPI); morphine IC50/ agonist IC50 in the same tissue. The format is functional. The conditions noted are these: Cavia porcellus; target entry is the homologue from another species.

For test [2], the target named is T1, Opioid receptors; mu/kappa/delta (Homo sapiens). In words: The relative potency was evaluated with respect to morphine. Conditions: Cavia porcellus.

Structures are written as SMILES.

T1 sequence (P35372 whole entry, looked up): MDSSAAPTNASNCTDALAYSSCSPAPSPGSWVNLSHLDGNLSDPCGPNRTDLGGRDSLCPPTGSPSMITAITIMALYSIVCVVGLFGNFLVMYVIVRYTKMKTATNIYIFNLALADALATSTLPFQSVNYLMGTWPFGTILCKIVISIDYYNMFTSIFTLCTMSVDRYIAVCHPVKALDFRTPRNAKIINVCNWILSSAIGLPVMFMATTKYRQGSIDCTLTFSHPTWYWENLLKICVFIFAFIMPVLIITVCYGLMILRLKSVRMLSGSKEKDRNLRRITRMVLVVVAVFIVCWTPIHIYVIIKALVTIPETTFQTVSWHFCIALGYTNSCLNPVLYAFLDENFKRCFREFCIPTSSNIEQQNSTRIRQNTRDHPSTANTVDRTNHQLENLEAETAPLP
T1 sequence (P41143 whole entry, looked up): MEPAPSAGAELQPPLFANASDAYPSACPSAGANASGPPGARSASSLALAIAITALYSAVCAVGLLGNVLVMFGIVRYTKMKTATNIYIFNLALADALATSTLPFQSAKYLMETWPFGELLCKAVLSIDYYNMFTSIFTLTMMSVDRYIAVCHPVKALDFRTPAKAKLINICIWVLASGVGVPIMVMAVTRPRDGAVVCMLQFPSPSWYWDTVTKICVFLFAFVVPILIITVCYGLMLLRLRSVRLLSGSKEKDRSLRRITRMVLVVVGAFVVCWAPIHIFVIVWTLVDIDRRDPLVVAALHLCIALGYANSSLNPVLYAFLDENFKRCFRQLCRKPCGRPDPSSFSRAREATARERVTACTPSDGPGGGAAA
T1 sequence (P41145 whole entry, looked up): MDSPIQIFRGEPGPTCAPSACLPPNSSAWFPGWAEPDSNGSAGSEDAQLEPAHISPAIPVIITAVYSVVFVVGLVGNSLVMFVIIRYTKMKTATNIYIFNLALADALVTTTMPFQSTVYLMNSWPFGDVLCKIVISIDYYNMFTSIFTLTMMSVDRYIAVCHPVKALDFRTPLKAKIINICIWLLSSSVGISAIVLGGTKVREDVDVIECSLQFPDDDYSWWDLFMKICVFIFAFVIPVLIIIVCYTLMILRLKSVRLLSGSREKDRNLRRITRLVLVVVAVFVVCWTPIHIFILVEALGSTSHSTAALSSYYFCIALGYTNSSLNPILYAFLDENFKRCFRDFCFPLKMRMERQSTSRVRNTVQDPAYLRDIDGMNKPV

Turning to `CC(=O)NCC(=O)NCC(=O)NC1CCC2(O)[C@H]3Cc4ccc(O)c5c4C2(CCN3CC2CC2)C1O5` (stereo partly drawn), the Potency ratio in test [1] worked out at 5.4. For the same compound, the Relative potency in test [2] amounted to 1. In the case of `O=C(CCC(=O)NCC(=O)NCC(=O)NC1CCC2(O)[C@H]3Cc4ccc(O)c5c4C2(CCN3CC2CC2)C1O5)NCC(=O)NCC(=O)NC1CCC2(O)[C@@H]3Cc4ccc(O)c5c4C2(CCN3CC2CC2)C1O5` (single isomer, unassigned; (-)), the Potency ratio in test [1] was found to be 181. In test [2], this compound returned a Relative potency of 33.5. In the case of `CN1CCC23c4c5ccc(O)c4OC2C(NC(=O)CNC(=O)CNC(=O)CCC(=O)NCC(=O)NCC(=O)NC2CCC4(O)[C@H]6Cc7ccc(O)c8c7C4(CCN6C)C2O8)CCC3(O)[C@H]1C5` (stereo partly drawn), the Potency ratio in test [1] was found to be 7.6. Still for that read-out and setting: the same measure for `CC(=O)NCC(=O)NCC(=O)NC1CCC2(O)[C@H]3Cc4ccc(O)c5c4C2(CCN3C)C1O5` (stereo partly drawn): 1.9.

For `O=C(CCC(=O)NCC(=O)NCC(=O)NC1CCC2(O)[C@H]3Cc4ccc(O)c5c4C2(CCN3CC2CC2)C1O5)NCC(=O)NCC(=O)NC1CCC2(O)[C@H]3Cc4ccc(O)c5c4C2(CCN3CC2CC2)C1O5` (stereo partly drawn), in test [1], the Potency ratio was 7.8. The Relative potency in test [2] is 1.4.
